Like-named read-outs stand apart in the source and are kept apart here.
Biological target: T1, mutant MGL (Homo sapiens, UniProt Q99685, L169S/L176S)
T1 sequence (Q99685 1-303 L169S/L176S): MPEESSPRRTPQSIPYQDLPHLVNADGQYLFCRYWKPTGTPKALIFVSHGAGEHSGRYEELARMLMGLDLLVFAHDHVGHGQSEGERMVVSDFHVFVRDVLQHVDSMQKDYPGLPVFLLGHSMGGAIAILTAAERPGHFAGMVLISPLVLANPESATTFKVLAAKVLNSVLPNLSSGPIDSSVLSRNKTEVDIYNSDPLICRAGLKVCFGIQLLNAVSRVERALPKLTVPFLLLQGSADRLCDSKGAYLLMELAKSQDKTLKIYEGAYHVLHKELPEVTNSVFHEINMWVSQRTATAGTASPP
Assay: MGL ThermoFluor assay - mutant
Assay type: binding
Settings: read-out: MGL mutant ThermoFluor Kd

[1] = ThermoFluor concentration-response
[2] = ThermoFluor thermal stability binding assay

Row | Kd [1] [nM] | Kd [2] [nM] | Structure (SMILES)
1 | 6250 | – | O=C(/C=C/c1ccccc1Cl)N1CC(N2CCN(C(=O)c3ccccc3)CC2)C1 [Cpd 103, 1-{1-[(2E)-3-(2-Chlorophenyl)prop-2-enoyl]azetidin-3-yl}-4-(phenylcarbonyl)piperazine]
2 | 5000 | – | O=C(/C=C/c1ccccc1Br)N1CC(N2CCN(C(=O)c3ccccc3)CC2)C1 [Cpd 104, 1-{1-[(2E)-3-(2-Bromophenyl)prop-2-enoyl]azetidin-3-yl}-4-(phenylcarbonyl)piperazine]
3 | 5000 | – | O=C(/C=C/c1ccc2ccccc2c1)N1CC(N2CCN(C(=O)c3ccccc3)CC2)C1 [Cpd 105, 1-{1-[(2E)-3-Naphthalen-2-ylprop-2-enoyl]azetidin-3-yl}-4-(phenylcarbonyl)piperazine]
4 | 154 | – | O=C(c1ccccc1)N1CCN(C2CN(C(=O)C3CCC(c4ccccc4)CC3)C2)CC1 (centres unmarked) [Cpd 106, 1-(Phenylcarbonyl)-4-{1-[(4-phenylcyclohexyl)carbonyl]azetidin-3-yl}piperazine]
5 | 556 | – | Cc1c(-c2ccccc2)oc2c(C(=O)N3CC(N4CCN(C(=O)c5ccccc5)CC4)C3)cccc2c1=O [Cpd 107, 3-Methyl-2-phenyl-8-({3-[4-(phenylcarbonyl)piperazin-1-yl]azetidin-1-yl}carbonyl)-4H-chromen-4-one]
6 | 1250 | – | O=C(c1ccccc1)C1CCC(C(=O)N2CC(N3CCN(C(=O)c4ccccc4)CC3)C2)CC1 (centres unmarked) [Cpd 108, Phenyl[4-({3-[4-(phenylcarbonyl)piperazin-1-yl]azetidin-1-yl}carbonyl)cyclohexyl]methanone]
7 | 33.3 | – | CC(C)(C)OC(=O)N1CCC(c2ccc(C(=O)N3CC(N4CCN(C(=O)c5ccccc5)CC4)C3)cc2)CC1 [Cpd 109, tert-Butyl 4-[4-({3-[4-(phenylcarbonyl)piperazin-1-yl]azetidin-1-yl}carbonyl)phenyl]piperidine-1-carboxylate]
8 | 5000 | – | O=C(c1ccccc1)N1CCN(C2CN(C(=O)c3cccnc3Oc3ccccc3)C2)CC1 [Cpd 110, 1-{1-[(2-Phenoxypyridin-3-yl)carbonyl]azetidin-3-yl}-4-(phenylcarbonyl)piperazine]
9 | 10000 | – | CC(C)(C)OC(=O)N1CCC(c2ccccc2C(=O)N2CC(N3CCN(C(=O)c4ccccc4)CC3)C2)C1 (centres unmarked) [Cpd 111, tert-Butyl 3-[2-({3-[4-(phenylcarbonyl)piperazin-1-yl]azetidin-1-yl}carbonyl)phenyl]pyrrolidine-1-carboxylate]
10 | 1110 | – | CC1CN(C2CN(C(=O)c3cccc(Oc4ccccc4)c3)C2)CCN1C(=O)c1nccs1 (centres unmarked) [Cpd 113]
11 | 3.33 | – | O=C(c1ccc(-c2ccccc2)cc1)N1CC(N2CCN(C(=O)c3nccs3)CC2c2ccccc2)C1 (centres unmarked) [Cpd 114]
12 | 2000 | – | CC1CN(C2CN(C(=O)c3cccc(-c4ccccc4)c3)C2)CCN1C(=O)c1nccs1 (centres unmarked) [Cpd 116]
13 | – | 250 | O=C(c1ccccc1)N1CCN(C2CN(C(=O)c3ccc4c(ccn4S(=O)(=O)c4ccccc4)c3)C2)CC1 [Cpd 130]
14 | – | 94.1 | O=C(c1ccccc1)N1CCN(C2CN(C(=O)c3ccc4nc(-c5cccc(C(F)(F)F)c5)oc4c3)C2)CC1 [Cpd 131, 6-({3-[4-(Phenylcarbonyl)piperazin-1-yl]azetidin-1-yl}carbonyl)-2-[3-(trifluoromethyl)phenyl]-1,3-benzoxazole]
15 | – | 250 | O=C(c1ccccc1)N1CCN(C2CN(C(=O)c3ccc4oc(-c5ccccc5)nc4c3)C2)CC1 [Cpd 132]
16 | 25 | – | O=C(c1cccc(-c2cccc(Br)n2)c1)N1CC(N2CCN(C(=O)c3nccs3)CC2)C1 [Cpd 151, 1-(1-{[3-(6-Bromopyridin-2-yl)phenyl]carbonyl}azetidin-3-yl)-4-(1,3-thiazol-2-ylcarbonyl)piperazine]
17 | 0.67 | – | O=C(c1ccc(-c2cccc(Cl)c2)cc1)N1CC(N2CCN(C(=O)c3nccs3)CC2)C1 [Cpd 162, 1-{1-[(3′-Chlorobiphenyl-4-yl)carbonyl]azetidin-3-yl}-4-(1,3-thiazol-2-ylcarbonyl)piperazine]
18 | 30300 | – | O=C(c1cncc(-c2ccccc2)c1)N1CC(N2CCN(C(=O)c3cscn3)CC2)C1 [Cpd 169]
19 | 708 | – | N#Cc1ccc(-c2ccc(C(=O)N3CC(N4CCN(C(=O)c5cscn5)CC4)C3)cc2)cc1 [Cpd 171]
20 | – | 6.7 | N#CC=Cc1cccc(-c2ccc(C(=O)N3CC(N4CCN(C(=O)c5nccs5)CC4)C3)cc2)c1 [Cpd 223, 3-[4′-({3-[4-(1,3-Thiazol-2-ylcarbonyl)piperazin-1-yl]azetidin-1-yl}carbonyl)biphenyl-3-yl]prop-2-enenitrile]
21 | – | 143 | CS(=O)(=O)c1cccc(-c2ccc(C(=O)N3CC(N4CCN(C(=O)c5ccccc5)CC4)C3)cc2)c1 [Cpd 231, 1-(1-{[3′-(Methylsulfonyl)biphenyl-4-yl]carbonyl}azetidin-3-yl)-4-(phenylcarbonyl)piperazine]

Row | Kd [1] [nM] | Kd [2] [nM] | Structure (SMILES)
22 | – | 1320 | CC(=O)Nc1cccc(-c2ccc(C(=O)N3CC(N4CCN(C(=O)c5ccccc5)CC4)C3)cc2)c1 [Cpd 233, N-[4′-({3-[4-(Phenylcarbonyl)piperazin-1-yl]azetidin-1-yl}carbonyl)biphenyl-3-yl]acetamide]
23 | – | 47.6 | CC(=O)Nc1cccc(-c2ccc(C(=O)N3CC(N4CCN(C(=O)c5nccs5)CC4)C3)cc2)c1 [Cpd 234, N-[4′-({3-[4-(1,3-Thiazol-2-ylcarbonyl)piperazin-1-yl]azetidin-1-yl}carbonyl)biphenyl-3-yl]acetamide]
24 | – | 588 | CC(=O)Nc1cccc(-c2ccc(C(=O)N3CC(N4CCN(C(=O)c5cscn5)CC4)C3)cc2)c1 [Cpd 235, N-[4′-({3-[4-(1,3-Thiazol-4-ylcarbonyl)piperazin-1-yl]azetidin-1-yl}carbonyl)biphenyl-3-yl]acetamide]
25 | – | 200 | CS(=O)(=O)c1cccc(-c2ccc(C(=O)N3CC(N4CCN(C(=O)c5cscn5)CC4)C3)cc2)c1 [Cpd 236, 1-(1-{[3′-(Methylsulfonyl)biphenyl-4-yl]carbonyl}azetidin-3-yl)-4-(1,3-thiazol-4-ylcarbonyl)piperazine]
26 | – | 33.3 | Cc1cc(-c2cccc(C(F)(F)F)c2)ccc1C(=O)N1CC(N2CCN(C(=O)c3ccccc3)CC2)C1 [Cpd 238, 1-(1-{[3-Methyl-3′-(trifluoromethyl)biphenyl-4-yl]carbonyl}azetidin-3-yl)-4-(phenylcarbonyl)piperazine]
27 | – | 0.5 | Cc1cc(C(=O)N2CC(N3CCN(C(=O)c4nccs4)CC3)C2)ccc1-c1cccc(C(F)(F)F)c1 [Cpd 241, 1-(1-{[2-Methyl-3′-(trifluoromethyl)biphenyl-4-yl]carbonyl}azetidin-3-yl)-4-(1,3-thiazol-2-ylcarbonyl)piperazine]
28 | – | 4 | Cc1cc(C(=O)N2CC(N3CCN(C(=O)c4cscn4)CC3)C2)ccc1-c1cccc(C(F)(F)F)c1 [Cpd 242, 1-(1-{[2-Methyl-3′-(trifluoromethyl)biphenyl-4-yl]carbonyl}azetidin-3-yl)-4-(1,3-thiazol-4-ylcarbonyl)piperazine]
29 | – | 2 | O=C(c1nccs1)N1CCN(C2CN(C(=O)c3ccc(-c4cccc(C(F)(F)F)c4)cc3F)C2)CC1 [Cpd 244, 1-(1-{[3-Fluoro-3′-(trifluoromethyl)biphenyl-4-yl]carbonyl}azetidin-3-yl)-4-(1,3-thiazol-2-ylcarbonyl)piperazine]
30 | – | 16.7 | O=C(c1ccccc1)N1CCN(C2CN(C(=O)c3ccc(-c4cccc(C(F)(F)F)c4)cc3F)C2)CC1 [Cpd 246, 1-(1-{[3-Fluoro-3′-(trifluoromethyl)biphenyl-4-yl]carbonyl}azetidin-3-yl)-4-(phenylcarbonyl)piperazine]
31 | – | 0.4 | COc1cc(C(=O)N2CC(N3CCN(C(=O)c4nccs4)CC3)C2)ccc1-c1cccc(C(F)(F)F)c1 [Cpd 247, 1-(1-{[2-Methoxy-3′-(trifluoromethyl)biphenyl-4-yl]carbonyl}azetidin-3-yl)-4-(1,3-thiazol-2-ylcarbonyl)piperazine]
32 | – | 10 | COc1cc(C(=O)N2CC(N3CCN(C(=O)c4ccccc4)CC3)C2)ccc1-c1cccc(C(F)(F)F)c1 [Cpd 249, 1-(1-{[2-Methoxy-3′-(trifluoromethyl)biphenyl-4-yl]carbonyl}azetidin-3-yl)-4-(phenylcarbonyl)piperazine]
33 | – | 3.3 | Cc1cc(C(=O)N2CC(N3CCN(C(=O)c4cscn4)CC3)C2)ccc1-c1ccc(Cl)c(C(F)(F)F)c1 [Cpd 258, 1-(1-{[4′-Chloro-2-methyl-3′-(trifluoromethyl)biphenyl-4-yl]carbonyl}azetidin-3-yl)-4-(1,3-thiazol-4-ylcarbonyl)piperazine]
34 | – | 833 | O=C(/C=C/c1ccccc1Cl)N1CC(N2CCN(C(=O)c3nccs3)CC2)C1 [Cpd 295, 1-{1-[(2E)-3-(2-Chlorophenyl)prop-2-enoyl]azetidin-3-yl}-4-(1,3-thiazol-2-ylcarbonyl)piperazine]
35 | – | 476 | O=C(/C=C/c1ccccc1Br)N1CC(N2CCN(C(=O)c3nccs3)CC2)C1 [Cpd 296, 1-{1-[(2E)-3-(2-Bromophenyl)prop-2-enoyl]azetidin-3-yl}-4-(1,3-thiazol-2-ylcarbonyl)piperazine]
36 | – | 333 | O=C(C=Cc1ccc2ccccc2c1)N1CC(N2CCN(C(=O)c3nccs3)CC2)C1 [Cpd 297]
37 | 2910 | – | Cc1ccc(-c2ccc(C(=O)N3CC(N4CCN(C(=O)c5cscn5)CC4)C3)[nH]2)cc1 [Cpd 298]
38 | – | 10000 | O=C(c1ccc(-c2ccccc2)cc1)N1CC(N2CCN(C(=O)c3cnon3)CC2)C1 [Cpd 308]
39 | – | 253 | N#Cc1csc(C(=O)N2CCN(C3CN(C(=O)c4ccc(-c5ccccc5)cc4)C3)CC2)c1 [Cpd 309]
40 | – | 0.4 | O=C(c1nccs1)N1CCN(C2CN(C(=O)c3sc4cc(-c5ccccc5)ccc4c3Cl)C2)CC1 [Cpd 343, 1-{1-[(3-Chloro-6-phenyl-1-benzothiophen-2-yl)carbonyl]azetidin-3-3yl}-4-(1,3-thiazol-2-ylcarbonyl)piperazine]
41 | – | 2400 | CS(=O)(=O)N1CCCc2cc(C(=O)N3CC(N4CCN(C(=O)c5cscn5)CC4)C3)ccc21 [Cpd 362]

— US8362000B2, “Azetidinyl diamides as monoacylglycerol lipase inhibitors” (Janssen Pharmaceutica NV, priority 2009, dated 2013)
